From patent publication US20250064983A1, “COMPOSITIONS AND METHODS FOR TREATING A CARDIAC DISEASE” (The Children's Medical Center Corporation, priority 2022, published 2025)

Legend:
CaMKIIδ = CaMKIIδ (Homo sapiens, UniProt Q13557); experiment: in vitro inhibition of CaMKIIδ, bioluminescent ADP monitoring assay (ADP-GLO); assay type: biochemical; settings: purified polypeptides
Description: FIG. 4 provides a schematic illustrating the design of an in vitro experiment to evaluate the impact of the purified polypeptides described in FIG. 2D and shown in the left portion of FIG. 4 on CaMKIIδ (an isomer of CaMKII) activity. Activity of CaMKIIδ was measured using a bioluminescent and homogeneous ADP monitoring assay for kinases (ADP-GLO™), which is described in Zegzouti, et al. “ADP-Glo: A Bioluminescent and Homogeneous ADP Monitoring Assay for Kinases,” ASSAY and Drug Development Technologies, December 2009, 560-572, doi.org/10.1089/adt.2009.0222, the disclosure of which is incorporated herein by reference in its entirety for all purposes.
Inhibition of CaMKIIδ activity by the polypeptides was evaluated using a bioluminescent and homogeneous ADP monitoring assay for kinases (ADP-GLO™), which is described in Zegzouti, et al. “ADP-Glo: A Bioluminescent and Homogeneous ADP Monitoring Assay for Kinases,” ASSAY and Drug Development Technologies, December 2009, 560-572, doi.org/10.1089/adt.2009.0222, the disclosure of which is incorporated herein by reference in its entirety for all purposes (FIG. 4).

LKB Flox/Flox mice = experiment: Example 4: beat to beat variation in LKB Flox/Flox mice with NPPA-Cre (atrial fibrillation model); assay type: in vivo, mouse; settings: co-injection of NPPA-Cre and AIP×5-mcherry AAV; 2, 4 and 6 weeks
Description: FIGS. 7A and 7B provide plots showing the impact of AIP×5 administration on atrial fibrillation in a mouse model. LKB Flox/Flox mice were double injected with AAV-NPPA-Cre and AAV-AIP×5-mcherry (see FIG. 6). FIG. 7A provides plots showing results from an experiment where mice positive for the LKB1 flanked by LoxP sites (LKB1flox/flox) were injected with either AAV9-NPPA-RFP, AAV9-NPPA-Cre or double injections of AAV9-NPPA-Cre+AAV9-cTnT-AIP×5 at post-natal day 3 (P3). At two week intervals, ECG recordings for 3 minutes were performed under anesthesia. The time difference between two QRS complexes (RR interval) was plotted as a function of the following interval (RR+1). FIG. 7B provides a plot where the standard deviation of the RR intervals for a 1 minute recording was calculated for each animal at the time points shown.
Experiments were undertaken to evaluate the efficacy of AIP×5 administration in treatment of atrial fibrillation. LKB Flox/Flox mice were double injected with NPPA-Cre and AIP×5-mcherry using an AAV vector. The mice were a model for atrial fibrillation. […] It was evaluated whether co-injection with AAV-AIP×5 would reduce AF. Beat to beat variation in HR, an index of AF frequency, was analyzed by plotting each RR interval (R) versus the RR interval of the subsequent beat (RI) (n=˜500 beats) (FIG. 7A). […] HR beat to beat variation was analyzed at 2 weeks, 4 weeks, and 6 weeks.

CaMKII = experiment: phosphorylation of phospholamban (PLB) at threonine-17 in whole heart lysates exposed to isoproterenol; assay type: in vivo, mouse; settings: exposed to isoproterenol (ISO), FIG. 3
Description: FIG. 3 provides a chart, a capillary Western image, and a plot showing the effects of the indicated constructs, which are described in FIG. 2D, on CaMKII activity in vivo. To confirm suppression of CaMKII activation in vivo, phosphorylation of phospholamban (PLB) at threonine-17, a known target of CaMKII, was analyzed from whole heart lysates. The middle panel of FIG. 3 provides a capillary Western image showing glyceraldehyde-3-phosphate dehydrogenase polypeptide (GAPDH) expression in cells contacted (+) or not contacted (−) with isoproterenol (ISO), as well as the levels of phosphorylated PLB (pPLB) and non-phosphorylated PLB (PLB). The right panel of FIG. 3 provides a plot showing the ratio of pPLB to PLB in hearts treated with no ISO or with ISO and mCherry (the “ISO” sample), AIP, AIP×5, AIP-FKBP12.6, CN19o, CN19oX3, or CN19o-FKBP12.6, which are described in FIG. 2D.
To confirm suppression of CaMKII activation in vivo, phosphorylation of phospholamban (PLB) at threonine-17, a known target of CaMKII, was evaluated in heart tissue from mice and whole heart lysates exposed to isoproterenol (ISO) (FIG. 3). Exposure of cardiac cells to ISO induced phosphorylation of PLB by CaMKII (FIG. 3).

[1] = tested on: RYR2^R176Q/QT and RYR2^R4560I/WT mice; experiment: Example 3: AAV vectors expressing AIP×5 in CPVT animal models; assay type: in vivo, mouse; settings: example written in present tense
Text: FIG. 6 provides a schematic showing administration of AAV vectors to RYR2^R176Q/WT and RYR2^R4560I/WT mice. […]. The top portion of FIG. 6 provides a schematic showing the components of polynucleotides of the AAV vectors. In FIG. 6, ITR represents “inverted terminal repeat,” CASQ2 represents a calsequestrin 2 enhancer, cTnT represents a “cardiac troponin” promoter, an INT represents a hemoglobin enhancer, AIP×5 represents a multimer containing five autocamtide-2-related inhibitory peptide (AIP) units, mScarlet represents the fluorescent polypeptide mScarlet, nls represents a nuclear localization signal, “stop” represents a stop codon, and WPRE represents a Woodchuck Hepatitis Virus (WHV) Posttranscriptional Regulatory Element.
AAV vectors expressing AIP×5 or a negative control AIV vector expressing only mScarlet (see FIG. 6) are prepared and administered to RYR2^R176Q/QT and RYR2^R4560I/WT mice, which are animal models of catecholaminergic polymorphic ventricular tachycardia (CPVT). The efficacy of the vectors in reducing symptoms of CPVT is evaluated in the animal models.

Sequence of CaMKIIδ (Q13557 1-478): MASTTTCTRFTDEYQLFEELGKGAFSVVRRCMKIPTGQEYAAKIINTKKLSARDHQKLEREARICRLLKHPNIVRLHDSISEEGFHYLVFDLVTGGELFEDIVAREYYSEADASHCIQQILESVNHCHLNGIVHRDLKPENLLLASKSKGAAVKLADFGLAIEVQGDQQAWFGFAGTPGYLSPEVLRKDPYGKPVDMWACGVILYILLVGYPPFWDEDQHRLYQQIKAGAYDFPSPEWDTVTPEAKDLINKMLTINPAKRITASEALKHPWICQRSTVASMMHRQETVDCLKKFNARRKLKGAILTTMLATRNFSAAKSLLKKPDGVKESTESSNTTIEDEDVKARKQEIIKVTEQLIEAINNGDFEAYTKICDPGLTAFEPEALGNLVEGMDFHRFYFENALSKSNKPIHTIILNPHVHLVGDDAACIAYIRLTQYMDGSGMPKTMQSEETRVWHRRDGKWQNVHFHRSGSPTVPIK

Sequence: YKKALHRQEAVDALYKKALHRQEAVDALYKKALHRQEAVDALYKKALHRQEAVDALYKKALHRQEAVDAL [AIP×5]
- EC50 (CaMKIIδ): 114 nM
- symptoms of AF (beat to beat variation of RR interval) (LKB Flox/Flox mice): effective in reducing symptoms of AF
- PLB phosphorylation (pPLB to PLB) (CaMKII): statistically significant decrease in PLB phosphorylation
- symptoms of CPVT (ectopy and/or ventricular tachycardia) [1]: reduction in symptoms of CPVT
